Several values for one entry are separate records, joined by “and”; a condition that tells them apart may be missing. Identical values can stand only once. Ends that are not written are not given here. Peptide text beside a SMILES is read from it.
Tests used:
Fnq26 = target: T1, Fnq26 (Streptomyces virginiae, UniProt A2AXG5); settings: Aromatic C10 O-prenylation; cited from earlier work
T1 sequence (A2AXG5 1-300): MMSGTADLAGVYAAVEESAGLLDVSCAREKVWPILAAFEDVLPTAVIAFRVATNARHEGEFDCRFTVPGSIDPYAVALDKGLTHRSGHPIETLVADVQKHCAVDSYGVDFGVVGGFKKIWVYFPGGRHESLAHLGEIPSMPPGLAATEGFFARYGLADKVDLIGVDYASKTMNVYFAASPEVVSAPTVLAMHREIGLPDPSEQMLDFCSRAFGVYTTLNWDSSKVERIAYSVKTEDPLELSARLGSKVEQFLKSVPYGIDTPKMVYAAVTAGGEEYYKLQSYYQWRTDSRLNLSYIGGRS

LimF [1] = experiment: His-prenylation of low molecular weight compounds, peptides and proteins by LimF; type: biochemical, Limnothrix sp. CACIAM 69d; settings: 100 μM LimF, 2 mM GPP, 20 hours; for His-prenylation efficiency (LC/MS): standard conditions
From the text: Next, various low molecular weight compounds, peptides, and proteins, including various compounds that have already been approved as pharmaceuticals, were subjected to His-prenylation facilitated by LimF.

PagF = settings: Tyr C5 O-prenylation; cited from earlier work
PirF = settings: Tyr C10 O-prenylation; cited from earlier work
LimF [2] = experiment: Steady-state kinetics of prenylation facilitated by LimF (wild type); type: biochemical, Limnothrix sp. CACIAM 69d; settings: Tyr-prenylation (C10 O-), 5 μM LimF, 16° C.
Experimental: Under optimal conditions, the steady-state kinetic parameters of the prenylation reaction of bcLimE2 facilitated by LimF were measured by the methods described below.
The concentration dependence of GPP and MgCl2 in bcLimE2 prenylation reactions facilitated by LimF was measured in reaction systems containing 1 μM LimF, 1 mM or a suitably modified concentration of GPP, 50 mM HEPES pH 7.2, 0.4 mM substrate, 1 mM DTT, and 40 mM or a suitably modified concentration of MgCl2. A reaction solution containing components other than GPP was prepared and preheated to 25° C., and the reaction was then started by adding GPP. After incubating at 25° C., the reaction was stopped at each point and analyzed by LC-MS. Next, the initial rate was calculated as the slope of increase in the amount of prenylation product produced in the linear region. Three separate reactions were carried out under each condition and the mean and standard deviation of the results were used for the analysis.
For GPP concentration dependence and peptide substrate concentration dependence, the kinetic parameters were estimated by fitting the initial rate and GPP substrate concentration or peptide substrate concentration to the Michaelis-Menten model in Graphpad Prism 8.4.2 (GraphPad Prism Software Inc., San Diego, California) software.
Kinetic parameters of the His-prenylation reaction facilitated by LimF were determined based on reactions under optimal conditions using substrates of different concentrations. For the Tyr-prenylation described below, the kinetic parameters were measured under the same conditions except that LimF was set to 5 μM and the reaction temperature was set to 16° C. In order to estimate the kinetic parameters, the initial rate and substrate concentration were fitted to the Michaelis-Menten model in Graphpad Prism 8.4.2 software.
In order to further evaluate the two different prenylation modes by LimF, two teMPs (teR6-H5A/Y7H and teR6-H5A) that undergo efficient His-prenylation and Tyr-prenylation, respectively, were designed and chemically synthesized. Kinetic analysis was carried out according to the above method using these peptides.

bcLimE2 [3] = experiment: Prenyl group donor tolerance of LimF variants (conversion of bcLimE2); type: biochemical; set-up: key to Final Conversion Efficiency: “n.r.” indicates that the reaction did not proceed; settings: for Final Conversion Efficiency: substrate bcLimE2
Experimental: An attempt was made to change the selectivity of LimF with respect to prenyl group donors examined in “2. Evaluation of Enzymatic Activity of LimF” by introducing a mutation into LimF. […], illustrated in FIG. 7(a), was used as the substrate.
(§1) For the assay of LimF variants, 100 μM bcLimE2 was incubated individually at a 5 μL scale with 20 to 100 μM LimF variants under conditions of 1 mM GPP or DMAPP, 50 mM HEPES (pH 7.2), 40 mM MgCl2, 1 mM DTT, and DMSO (4%, v/v). After incubating for 16 hours at 25° C., the reaction was stopped by adding 9 times the amount (45 μL) of a 1% TFA aqueous solution. Next, the mixture was incubated on ice for 10 minutes, a precipitate was separated by centrifugation at 4° C. (15300×g, 10 minutes), and 1 μL of supernatant was subjected to LC-MS analysis.
An amino acid forming a small pocket that stores a prenyl group in the crystal structure was selected for the introduction site of the LimF mutation. Specifically, Gly at position 224 was selected, and this was substituted with a larger amino acid. […] This alignment supports the hypothesis that the 224th Gly contributes to prenyl group selectivity.
as §1, with “[…]” for “5 μL”, “or FPP,” for “or DMAPP,”, “7.2), 5” for “7.2), 40”, “([…])” for “(45 μL)”
An amino acid forming a small pocket that stores a prenyl group in the crystal structure was selected for the introduction site of the LimF mutation. Specifically, the amino acids at the positions described in the table in the left column of FIG. 19 were replaced with relatively small Ala.
Therefore, substitution of amino acids other than Ala with respect to the W273 position was comprehensively performed (middle column of FIG. 19). As a result, The mutation for W273N and W273T are focused, and in addition to the W273N mutation and the W273T mutation, simultaneous substitution with various amino acids was performed for His at 239, which is an amino acid adjacent to position 273 (right column of FIG. 19).

bcLimE2 [4] = target: T2, bcLimE2
T2 chain: RYPHEEIP

For `O=C(O)c1ccc(O)cc1` [4-hydroxy-benzoate], the Kcat (Fnq26) is listed as 0.00233 s⁻¹ and the Km (Fnq26) is listed as 5600 µM.

With `CCCC[C@H](NC(C)=O)C(=O)N[C@H]1CC(=O)NCCCC[C@@H](C(=O)O)NC(=O)[C@H](Cc2c[nH]c3ccccc23)NC(=O)[C@H](CCCN=C(N)N)NC(=O)[C@@H](Cc2ccccc2)NC(=O)[C@H](Cc2cnc[nH]2)NC1=O` [Bremelanotide, Ac-Nle-Asp(1)-His-D-Phe-Arg-Trp-Lys(1)-OH] the “His-prenylation efficiency (LC/MS)” value (LimF [1]; 500 μM substrate) was 1%.

For `CN/C(=N\C#N)NCCSCc1nc[nH]c1C` [Cimetidine, cimetidine], the “prenylation of His residue or imidazole C2 carbon by LimF (in words)” value (“prenylation … (in words)” below) (LimF [1]) was “very high efficiency” and the “His-prenylation efficiency (LC/MS)” value (LimF [1]; 500 μM substrate) was 97%.

In the case of `CCNC(=O)[C@@H]1CCCN1C(=O)[C@H](CCCNC(=N)N)NC(=O)[C@H](CC(C)C)NC(=O)[C@@H](Cc1cn(Cc2ccccc2)cn1)NC(=O)[C@H](Cc1ccc(O)cc1)NC(=O)[C@H](CO)NC(=O)[C@H](Cc1c[nH]c2ccccc12)NC(=O)[C@H](Cc1cnc[nH]1)NC(=O)[C@@H]1CCC(=O)N1` [Histrelin, H-Pyr-His-Trp-Ser-Tyr-D-His(1-Bn)-Leu-Arg-Pro-NHEt], the “prenylation … (in words)” value (LimF [1]) is reported as “very high efficiency” and the “His-prenylation efficiency (LC/MS)” value (LimF [1]; 500 μM substrate) is reported as 99%.

For `NC(=O)[C@@H]1CCCN1C(=O)[C@H](Cc1cnc[nH]1)NC(=O)[C@@H]1CCC(=O)N1` [TRH], the “His-prenylation efficiency (LC/MS)” value (LimF [1]; 500 μM substrate) was 15%.

For `N[C@@H](Cc1ccc(O)cc1)C(=O)N[C@@H](Cc1ccc(O)cc1)C(=O)N[C@@H](Cc1ccc(O)cc1)C(=O)O` [YYY] (H-Tyr-Tyr-Tyr-OH), the Kcat (PagF) is given as 0.0967 s⁻¹ and the Km (PagF) is given as 160 µM.

In the case of `O=C1C(O)=CC(=O)c2c(O)cc(O)cc21` [flaviolin], the Kcat (Fnq26) is listed as 0.000217 s⁻¹ and the Km (Fnq26) is listed as 21 µM.

In the case of “Aviptadil: synthetic vasoactive intestinal polypeptide (HSDAVFTDNYTRLRKQMAVKKYLNSILN; Aviptadil)”, the “His-prenylation efficiency (LC/MS)” value (LimF [1]; 125 μM substrate) is reported as “about 90%” and the “His-prenylation efficiency (LC/MS)” value (LimF [1]; 125 μM substrate, listed as Avipt ?) is reported as 90%.

In the case of “Cyclo(-Ser-Asn-Leu-Ser-Thr-Asu)-Val-Leu-Gly-Lys-Leu-Ser-Gln-Glu-Leu-His-Lys-Leu-Gln-Thr-Tyr-Pro-Arg-Thr-Asp-Val-Gly-Ala-Gly-Thr-Pro-NH2 [Elcatonin]”, the “His-prenylation efficiency (LC/MS)” value (LimF [1]; 125 μM substrate) is reported as 5%.

With “H-Asp-Arg-Val-Tyr-Ile-His-Pro-Phe-OH [ANGIOTENSIN II]” the “His-prenylation efficiency (LC/MS)” value (LimF [1]; 500 μM substrate) was 1%.

For “H-Pyr-His-Trp-Ser-Tyr-D-Leu-Leu-Arg-Pro-NHEt [Leoprorelin]”, the “prenylation … (in words)” value (LimF [1]) was “very high efficiency” and the “His-prenylation efficiency (LC/MS)” value (LimF [1]; 500 μM substrate) was 99%.

For Insulin, the “His-prenylation efficiency (LC/MS)” value (LimF [1]; 500 μM substrate) was 5%.

For MSGVDYYNPFAGDDAE, the Kcat (PirF) is listed as 0.0183 s⁻¹ and the Km (PirF) is listed as 118 µM.

For “Pramlintide: analog of amylin (KCNTATCATQRLANFLVHSSNNFGPILPPTNVGSNTY; Pramlintide)”, the “prenylation … (in words)” value (LimF [1]) was “very high efficiency” and the “His-prenylation efficiency (LC/MS)” value (LimF [1]; 125 μM substrate) was 99%.

In the case of “Teduglutide (HGDGSFSDEMNTILDNLAARDFINWLIQTKITD; chains of the INN, looked up)”, the “prenylation … (in words)” value (LimF [1]) is reported as “very high efficiency” and the “His-prenylation efficiency (LC/MS)” value (LimF [1]; 125 μM substrate) is reported as 50%.

With “Trp-His-Trp-Leu-Gln-Leu-Lys-Pro-Gly-Gln-Pro-Met-Tyr-OH (WHWLQLKPGQPMY-OH) [α-mating factor, cell signaling peptide for yeast]” the “His-prenylation efficiency (LC/MS)” value (LimF [1]; 500 μM substrate) was 39%.

In the case of “cyclo[MSGVDYYNP] (head-to-tail cyclized)”, the Kcat (PirF) is listed as 0.0117 s⁻¹ and the Km (PirF) is listed as 116 µM.

For tecyclo[DFRGNATYIPC] [teR6-H5A], the Kcat (LimF [2]) was 0.0167 s⁻¹ and 0.0167 ± 0.0017 s⁻¹, the Km (LimF [2]) was 7300 ± 1800 µM and the Kcat (LimF [2]; listed as tecyclo[DFRGNATYIPC]) was 0.0167 s⁻¹.

For tecyclo[wAVSNLPPRPHITYIEC]S [PBm1], the “prenylation … (in words)” value (LimF [1]) was “very high efficiency” and the “His-prenylation efficiency (LC/MS)” value (LimF [1]; 500 μM substrate) was 99%.

B1: LimF-H239G/W273T (protein)
chain: MKKRKSSKVFKSTIAPEEKLRYIGNHKQAFDIEPLYPLALFEEFVATTGDCIIECSGKIKQDQLYPARIDLQFSDKHHFHNIHTSIDFLKRAASRTDVNLNLDILATFLAGNFDYSKVQNILAGIDLRQNLGESKLKLFIRIGDYPAKMAVAKHLCNITPESEAMLRSDTLHIGFDFYLDGRSAIELYPELKKDEFNHPFIYNQLKTILSPEALKPLPLCNLFGIGLSPANEANVLYYGLENIEDFLSYFPINDTARRVHDFYLQQEGSRRMTVALSESEMKAGRINNVNLYYSKAFTSQNP
With B1 the “C15 prenylation (farnesylation) selectivity and efficiency” value (bcLimE2 [3]; 100 μM bcLimE2, 1 mM GPP or FPP, 5 mM MgCl2, 16 hours, 25° C.) was “high selectivity and high efficiency”, the “Final Conversion Efficiency” value (bcLimE2 [3]; prenyl group donor DMAPP) was “n.r” and the “Final Conversion Efficiency” value (bcLimE2 [3]; prenyl group donor FPP) was >99%. For the same molecule, the “Final Conversion Efficiency” value (bcLimE2 [3]; prenyl group donor GGPP) was “n.r”, the “Final Conversion Efficiency” value (bcLimE2 [3]; prenyl group donor GPP) was 16.9% and the KM (mM), kinetics of prenylation of bcLimE2 with FPP as prenyl group donor (bcLimE2 [4]) was 0.62 mM. The KM (mM), kinetics of prenylation of bcLimE2 with GPP as prenyl group donor (bcLimE2 [4]) was 0.58 mM.

B2: wt-LimF: prenyltransferase derived from Limnothrix sp. CACIAM 69d, SEQ ID NO: 1 (protein, listed as Limnothrix sp.)
chain: MKKRKSSKVFKSTIAPEEKLRYIGNHKQAFDIEPLYPLALFEEFVATTGDCIIECSGKIKQDQLYPARIDLQFSDKHHFHNIHTSIDFLKRAASRTDVNLNLDILATFLAGNFDYSKVQNILAGIDLRQNLGESKLKLFIRIGDYPAKMAVAKHLCNITPESEAMLRSDTLHIGFDFYLDGRSAIELYPELKKDEFNHPFIYNQLKTILSPEALKPLPLCNLFGIGLSPANEANVLYYHLENIEDFLSYFPINDTARRVHDFYLQQEGSRRMWVALSESEMKAGRINNVNLYYSKAFTSQNP
modifications: CACIAM 69d
With B2 the “Final Conversion Efficiency” value (bcLimE2 [3]; prenyl group donor DMAPP) was “n.r”, the “Final Conversion Efficiency” value (bcLimE2 [3]; prenyl group donor FPP) was 0.0027% and the “Final Conversion Efficiency” value (bcLimE2 [3]; prenyl group donor GGPP) was “n.r”. For the same molecule, the “Final Conversion Efficiency” value (bcLimE2 [3]; prenyl group donor GPP) was >99%.

Reference: US20250320471A1, “Method for Producing Compounds, Method for Producing Compound Library, Compound Library, and Screening Method” (The University of Tokyo, priority 2021, published 2025)
